We go through seven substances from US7871628B2, “Peptide mimics of conserved gonococcal epitopes and methods and compositions using them” (University of Massachusetts, priority 1999, dated 2011).

pIC50: −log10 of the molar value. Where “and” joins values, the source holds several entries; their conditions need not be identical. Equal values may be shown once. Positions of bridges follow the written chain, without caps; N, C: chain ends. No end group written: not given here.

Test [1] deals with mAb 2C7. Kind of test: Inhibition ELISA: synthetic peptide inhibiting mAb 2C7 binding to LOS. The protocol: Peptides were diluted in blocking buffer (1% ovalbumin, 0.05% TWEEN-20™ (polysorbate 20), 0.5 M NaCl in PBS) to produce mixtures of varying concentrations (0.1, 0.5 and 1 mg/ml). […] Purified LOS prepared from gonococcal strain 15253 was used as a positive control. A non-reactive 15-mer peptide sequence generated by the above described random peptide library system was used as a negative control peptide [SEQ ID NO:9].

In test [2] the test system is mAb 2C7. Nature of the test: Direct ELISA: mAb 2C7 binding to multiple antigen peptides. The settings on record: plates coated with MAP 1 μg/well. The protocol: (§1) Solid phase ELISA was performed to assess the binding of mAb 2C7 to multiple antigen peptides. For direct ELISA, Immulon 1 plates were coated overnight with multiple antigen peptides (1 μg/well) and reacted with varying concentration of mAb 2C7. For inhibition ELISA, plates were coated with purified LOS prepared from N. gonorrhoeae strain 15253 (80 μg/ml) at 37° C. for 3 h. Peptides (linear or MAPs) were diluted in blocking buffer (1% ovalbumin, 0.05% TWEEN-20™ (polysorbate 20), 0.5 M NaCl in PBS) to produce mixtures of varying concentrations. 50 μl-aliquots from each concentration were incubated with 50 μl of mAb 2C7 (stock concentration 0.4 μg/ml diluted in blocking buffer) at 37° C. for 1 h, then 100 μl of mixtures were loaded into microtiter plate wells. […] Purified LOS prepared from gonococcal strain 15253 was used as a positive control in inhibition ELISA.

Test [3] deals with mAb 2C7. Kind of test: Inhibition ELISA: linear peptide or MAPs inhibiting mAb 2C7 binding to LOS. As to conditions: for pIC50: mAb 2C7 stock 0.4 μg/ml, LOS of strain 15253 coated plates, read-out: half maximal inhibition (IC50) of mAb 2C7 binding to LOS. The protocol:
as §1

Test [4] has as its system N. gonorrhoeae strain 15253 lgtG. Kind of test: Complement-mediated bactericidal assay, strain 15253 lgtG mutant (2C7 epitope negative). The test is classed as cell-based, Neisseria gonorrhoeae. As to conditions: serum of single immunized mouse, 67% serum, 17% human complement. The protocol: (§2) A bactericidal assay was performed using (A) mAb 2C7 mice against strain 15253 (positive control) and strain 15253 lgtG (negative control) (4). 25 μg/ml of mAb 2C7 (100 μl in 150 μl of total volume of reaction mixture) mediated 100% killing of strain 15253, and no killing of strain 15253 lgtG. […] FIG. 12 controls included the Complement source without antibody (137.9%±1.0% survival (no killing) for strain 15253, and 132.5%±14.3% survival (no killing) for the lgtG mutant of 15253).
(§3) Depicted in FIG. 12 is a graph showing survival of N. gonorrhoeae strain 15253 and its lgtG mutant (2C7 epitope negative) (4) exposed to mouse immune serum (67% final mouse immune serum concentration by volume) plus added human complement obtained from normal human donors (17% final human complement concentration by volume).
Strain 15253 lgtG contains a disrupted allele of lipooligosaccharide (LOS) glycosyl transferase G, which transfers glucose (via an α linkage) onto heptose-2 in the core of LOS (4). The disruption of the lgtG locus results in the loss of 2C7 epitope expression.
A standard bactericidal assay was performed to assess complement-mediated bactericidal activity in mouse sera (11). […] Survival was expressed as the percent increase in colonies on the plate at 30 minutes, compared to those on the plate at 0 minutes. […]

The next test concerns IgG anti-LOS antibody. Nature of the test: IgG anti-LOS antibody response in immunized mice. Type of test: in vivo. The protocol: FIGS. 8A-8D show octa-MAP1-induced IgG anti-LOS antibody responses in mice. (A) Eight mice received a dose of 50 μg of Octa-MAP1 emulsified in Freund's adjuvant on day 0 and again on day 21. (B) Four mice were immunized with purified LOS as a positive control. Mice were immunized with either Freund's adjuvant (C) or an unrelated octa-MAP control peptide (D) as negative controls.
In FIG. 8(A), eight mice received a dose of 50 μg of Octa-MAP1 emulsified in Freund's adjuvant on day 0 and again on day 21. […] In these mice, IgG anti-LOS titers increased minimally after the first immunization and rose after boosting.
IgG anti-LOS antibody responses for the responder mice only (from the experiments depicted in FIGS. 8A-8D) are shown in FIG. 10. Antibody response is defined as IgG anti-LOS (mean±SE) greater than 0.4 μg/ml (4 fold above baseline IgG anti-LOS levels).

Test [5] relates to N. gonorrhoeae strain 15253. Nature of the test: Complement-mediated bactericidal assay, strain 15253. Type of test: cell-based, Neisseria gonorrhoeae. The protocol:
as §2, §3
A standard bactericidal assay was performed to assess complement-mediated bactericidal activity in mouse sera (11). In this assay, mouse serum (67% final volume) (from various mice immunized or not as described below) was incubated with approximately 2.5×10^3 bacteria suspended in Morse A media (33) in the presence of human complement (17% final volume). The reaction mixture was then shaken continuously at 37° C. for 30 minutes. Aliquots of the reaction mixture were then inoculated onto chocolate agar plates at time 0 and 30 minutes. Survival was expressed as the percent increase in colonies on the plate at 30 minutes, compared to those on the plate at 0 minutes. Greater than 100% survival in the assay indicates growth during the 30-minute incubation period.

The next test deals with IgM anti-LOS antibody. Nature of the test: IgM anti-LOS antibody response in immunized mice. The test is classed as in vivo. As to conditions: responder mice only.

Consider IPVLDENGLFAP [PEP1], for which the “percentage inhibition of mAb 2C7 binding to LOS” value in the test with mAb 2C7 [1] (peptide 0.1 mg/ml) stood at 17%; with mAb 2C7 [1] (peptide 0.5 mg/ml), 77%; with mAb 2C7 [1] (peptide 1.0 mg/ml) it was 91%.
As for CGPIPVLDENGLFAPGPC [Tetra-MAP1], the “binding to mAb 2C7 in direct ELISA (in words)” value (“binding to mAb 2C7” for short) in the test with mAb 2C7 [2] is recorded as “strong binding”. Also, the pIC50 on mAb 2C7 [3] was 5.90.
On to “CKSNPIHIIKNRRNIPC (disulfide 1-17 (inferred)) [negative control peptide, reference compound]”, for which, in the test with mAb 2C7 [1] (peptide 0.1, 0.5 and 1 mg/ml), the “inhibition of binding of 2C7 mAb to purified LOS coated plate (in words)” value is on record as “did not inhibit binding”.
As for “unrelated octa-MAP control peptide: unrelated octa-MAP negative control, each antigen SEQ ID NO: 12 (CGPEARDEGTITLERGPC; cysteine pairing not given here; also: octa-MAP on lysine core) [reference compound]”, in test [4], the “killing/survival of strain 15253 lgtG (in words)” value is listed as “did not kill either strain”. Further, in the test with IgG anti-LOS antibody (immunized mice), the “IgG anti-LOS response (in words)” value is listed as “weak or no IgG anti-LOS responses”. The “killing of strain 15253 (in words)” value in test [5] (serum of single immunized mouse, 67% serum, 17% human complement) is given as “did not kill either strain”.
As to CGPIPVLDENGLFAPGPC [Octa-MAP1], the “killing/survival of strain 15253 lgtG (in words)” value in test [4] is reported as “survived fully”. Besides, in the test on mAb 2C7 [2], the “binding to mAb 2C7” value is on record as “strong binding”. In addition, the “IgM anti-LOS antibody response (in words)” value with IgM anti-LOS antibody is reported as “failed to respond with IgM anti-LOS levels higher than mice immunized with negative control antigens”. In addition, the negative logarithm of the IC50 (pIC50) at mAb 2C7 [3] was 6.64. Further, in the test on IgG anti-LOS antibody (individual mice, pooled bleeds weeks 7-11), the “IgG anti-LOS antibody concentration in serum of immunized mouse” value was 5.05 µg/mL and 1.38 µg/mL and 2.50 µg/mL. Moreover, the “mice with induced IgG anti-LOS antibody response” value in the test with IgG anti-LOS antibody (mice immunized day 0 and day 21, Octa-MAP1 50 μg in Freund's adjuvant) is given as “three of the eight”. Further, the “IgG anti-LOS antibody levels compared with negative control antigens” value in the test with IgG anti-LOS antibody (responder mice, 7 and 10 weeks after primary immunization) was “higher (p<0.001)”. Moreover, the “time of peak IgG anti-LOS response” value in the test on IgG anti-LOS antibody (three responder mice, boost at week 3) is 7 week. Besides, the “killing of strain 15253” value in test [5] (serum of immunized mouse containing 1.38 μg/ml anti-LOS antibodies) came to 31%; in test [5] (serum of immunized mouse containing 2.50 μg/ml anti-LOS antibodies), 74%; in test [5] (serum of immunized mouse containing 5.05 μg/ml IgG anti-LOS, 67% serum, 17% human complement, 30 min), 92%. Moreover, in test [5] (serum of single immunized mouse (pooled bleeds weeks 7-11), 67% serum, 17% human complement, 30 min), the “survival of strain 15253” value turned out to be 8%.
“linear PEP1: linear PEP1 peptide compared with the MAPs in inhibition ELISA (IPVLDENGLFAP)”: the negative-log IC50 (pIC50) on mAb 2C7 [3] was 4.26.
On to “control MAP: control multiple antigen peptide(s), each antigen SEQ ID NO: 12 (CGPEARDEGTITLERGPC; cysteine pairing not given here; also: multiple antigen peptide on lysine core) [reference compound]”, for which the “binding to mAb 2C7” value in the test with mAb 2C7 [2] is “no binding”. Besides, the “inhibition of mAb 2C7 binding to LOS (in words)” value in the test with mAb 2C7 [3] is listed as “no significant inhibition”.
